The target in the experiment is T1, Rap guanine nucleotide exchange factor 3 (Homo sapiens) (UniProt O95398).
T1 sequence (whole entry): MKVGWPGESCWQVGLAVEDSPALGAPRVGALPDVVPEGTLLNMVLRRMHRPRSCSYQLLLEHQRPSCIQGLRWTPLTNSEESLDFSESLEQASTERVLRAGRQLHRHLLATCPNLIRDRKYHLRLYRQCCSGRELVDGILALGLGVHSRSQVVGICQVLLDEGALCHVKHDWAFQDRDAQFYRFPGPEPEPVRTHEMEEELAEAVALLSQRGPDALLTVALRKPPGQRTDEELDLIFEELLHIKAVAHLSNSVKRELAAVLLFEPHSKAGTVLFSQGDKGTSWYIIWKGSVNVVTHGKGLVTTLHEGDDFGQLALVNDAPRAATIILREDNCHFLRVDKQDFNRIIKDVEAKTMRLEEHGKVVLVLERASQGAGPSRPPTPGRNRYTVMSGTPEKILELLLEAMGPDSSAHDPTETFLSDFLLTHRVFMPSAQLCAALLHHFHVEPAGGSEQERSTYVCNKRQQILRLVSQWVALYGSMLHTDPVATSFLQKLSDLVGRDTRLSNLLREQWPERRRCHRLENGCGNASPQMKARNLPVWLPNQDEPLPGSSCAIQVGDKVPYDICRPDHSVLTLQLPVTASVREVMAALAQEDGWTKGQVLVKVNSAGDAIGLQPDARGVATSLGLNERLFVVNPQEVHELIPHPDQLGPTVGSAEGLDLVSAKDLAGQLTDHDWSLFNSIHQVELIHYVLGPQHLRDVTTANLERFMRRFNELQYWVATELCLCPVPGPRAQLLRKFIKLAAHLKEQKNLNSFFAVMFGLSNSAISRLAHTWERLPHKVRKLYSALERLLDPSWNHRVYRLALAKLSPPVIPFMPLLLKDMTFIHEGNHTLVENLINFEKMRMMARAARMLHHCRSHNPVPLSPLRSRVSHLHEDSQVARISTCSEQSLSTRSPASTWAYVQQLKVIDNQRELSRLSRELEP
Briefly: Binding affinity to GST-tagged recombinant EPAC1 CNBD (169 to 318 residues) (unknown origin) expressed in Escherichia coli BL21 Star (DE3) assessed as relative fluorescence intensity incubated for 4 hrs by 8-NBD-cAMP competition binding assay relative to control. On the set-up: concentration or dose not given beside the values.

Structures are written as SMILES.

For `O=C(COc1ccc2ccccc2c1)NS(=O)(=O)c1ccccc1F`, the Activity worked out at 69%. Next, `Cc1ccc(S(=O)(=O)NC(=O)COc2ccc3[nH]ccc3c2)c(C)c1`: 91%; `O=C(COc1ccc2ccccc2c1)NS(=O)(=O)C1CCCCC1`: 81%; `COc1ccc2ccc(OCC(=O)NS(=O)(=O)c3cc(Cl)cc(Cl)c3)cc2c1`: 54%. Turning to `Cc1cc(-c2ccnn2C)cc(S(=O)(=O)NC(=O)COc2ccc3ccccc3c2)c1`, the Activity was 34%. Under `Cc1cc(C)c(S(=O)(=O)NC(=O)CSc2nc3ccccc3c(=O)[nH]2)c(C)c1` stands 95%; under `Cc1ccc(S(=O)(=O)NC(=O)C(C)(C)Oc2ccc3ccccc3c2)c(C)c1`, 76%; under `O=C(COc1ccc2ccccc2c1)NS(=O)(=O)c1cccc(F)c1`, 82%. Next, `Cc1cc(C)c(S(=O)(=O)N2CCC(Oc3ccc4ccccc4c3)CC2)c(C)c1`: 105%; `Cc1cc(C)c(S(=O)(=O)NC(=O)COc2ccc3ccccc3c2)c(C)c1`: 81%; `Cc1cc(C)c(S(=O)(=O)NC(=O)CN2CCc3ccccc3C2)c(C)c1`: 102%.

As for `COC(=O)c1cccc(S(=O)(=O)NC(=O)COc2ccc3ccccc3c2)c1`, the Activity is 71%.

`Cc1cc(C)c(S(=O)(=O)NC(=O)CN2CCn3c(nnc3C(F)(F)F)C2)c(C)c1`: the Activity came to 104%.

As for `Cc1cc(Br)cc(S(=O)(=O)NC(=O)COc2ccc3ccccc3c2)c1`, the Activity came out at 58%. Next, `COc1ccc(OC)c(S(=O)(=O)NC(=O)COc2ccc3ccccc3c2)c1`: 72%; `COc1ccc(S(=O)(=O)NC(=O)COc2ccc3ccccc3c2)cc1OC`: 50%. Under `Cc1cc(C)c(S(=O)(=O)NC(=O)COc2ccc3cccnc3c2)c(C)c1` stands 92%; under `O=C(COc1ccc2ccccc2c1)NS(=O)(=O)c1cccc(-c2ccoc2)c1`, 53%; under `Cc1cc(-c2cncc(F)c2)cc(S(=O)(=O)NC(=O)COc2ccc3ccccc3c2)c1`, 36%. For the compound `Cc1cc(C)c(S(=O)(=O)NC(=O)CN2CCN(c3ccccn3)CC2)c(C)c1`, the Activity was determined as 119%. Next, `COc1ccc2ccc(OCC(=O)NS(=O)(=O)c3ccc([N+](=O)[O-])cc3OC)cc2c1`: 24%.

With `Cc1cc(-c2ccco2)cc(S(=O)(=O)NC(=O)COc2ccc3ccccc3c2)c1`, the Activity worked out at 40%. On to `Cc1cc(C)c(S(=O)(=O)NC(=O)CSc2ccc3ccccc3c2)c(C)c1`, for which the Activity stood at 92%. Next, `O=C(COc1ccc2ccccc2c1)NS(=O)(=O)c1ccc(F)cc1`: 81%; `COc1ccc(OC)c(S(=O)(=O)NC(=O)COc2ccc3ccc(OC)cc3c2)c1`: 49%. Next, `Cc1ccc(S(=O)(=O)NC(=O)COc2ccc3ccccc3c2)cc1`: 44%. Next, `Cc1cc(C)c(S(=O)(=O)NC(=O)COc2ccc3c(c2)NC(=O)CC3)c(C)c1`: 77%. For the compound `Cc1ccc(S(=O)(=O)NC(=O)COc2cccc3ccccc23)c(C)c1`, the Activity was found to be 71%. For `COc1ccc2ccc(OCC(=O)NS(=O)(=O)c3cc(C)cc(Br)c3)cc2c1`, the Activity turned out to be 29%.

For `COc1ccc2ccc(OCC(=O)NS(=O)(=O)c3c(C)cc(C)cc3C)cc2c1`, the Activity is 49%. In the case of `Cc1cc(C)c(S(=O)(=O)NCCOc2ccc3ccccc3c2)c(C)c1`, the Activity worked out at 105%.

With `COc1ccc2ccc(OCC(=O)NS(=O)(=O)c3ccc(OC)c(OC)c3)cc2c1`, the Activity stood at 23%.

In the case of `COc1cc2c(cc1OC)CN(CC(=O)NS(=O)(=O)c1c(C)cc(C)cc1C)CC2`, the Activity was determined as 102%.

Regarding `COc1cccc(S(=O)(=O)NC(=O)COc2ccc3ccccc3c2)c1`, the Activity was determined as 33%. Next, `O=C(COc1ccc2ccccc2c1)NS(=O)(=O)c1cccc(-c2ccccc2)c1`: 35%; `Cc1cc(C)c(S(=O)(=O)NC(=O)CNc2ccc3ccccc3c2)c(C)c1`: 97%. Under `Cc1ccc(S(=O)(=O)NC(=O)COc2ccc3[nH]ncc3c2)c(C)c1` stands 94%. Next, `Cc1ccc(S(=O)(=O)NC(=O)COc2ccc3cc(Cl)ccc3c2)c(C)c1`: 50%. In the case of `Cc1ccc(S(=O)(=O)NCCOc2ccc3ccccc3c2)c(C)c1`, the Activity is 81%. Under `Cc1ccc(S(=O)(=O)NC(=O)COc2ccc3cc(F)ccc3c2)c(C)c1` stands 55%; under `Cc1cc(C)c(S(=O)(=O)NC(=O)CNc2cccc(Cl)c2)c(C)c1`, 88%; under `Cc1ccc(S(=O)(=O)NC(=O)COc2ccc3ccc(Cl)cc3c2)c(C)c1`, 66%. Under `Cc1cc(C)c(S(=O)(=O)NC(=O)COc2ccc3c(c2)CCCC3)c(C)c1` stands 77%; under `Cc1cc(C)c(S(=O)(=O)NC(=O)COc2cccc3ccccc23)c(C)c1`, 94%; under `O=C(COc1ccc2ccccc2c1)NS(=O)(=O)c1cccc([N+](=O)[O-])c1`, 67%. Under `CC(=O)c1c(OCC(=O)NS(=O)(=O)c2c(C)cc(C)cc2C)ccc2ccccc12` stands 104%. Consider `O=C(COc1ccc2ccccc2c1)NS(=O)(=O)c1ccccc1`, for which the Activity turned out to be 49%. Under `Cc1cc(C)c(S(=O)(=O)NC(=O)C(F)Oc2ccc3ccccc3c2)c(C)c1` (stereo not given) stands 82%; under `Cc1cc(Nc2ccc(C(F)(F)F)cn2)cc(S(=O)(=O)NC(=O)COc2ccc3ccccc3c2)c1`, 20%; under `Cc1cc(C)cc(S(=O)(=O)NC(=O)COc2ccc3ccccc3c2)c1`, 38%.
